The experiment addresses human GluN1/GluN2B NMDA receptors (Homo sapiens, UniProt Q05586+Q13224). The experiment is described as follows: Cell-based calcium flux (FLIPR) assay on cloned human GluN1/GluN2B ion channels expressed in mammalian cells. To be noted: standard assay; glutamate ~EC40, 10 μM glycine; stable Tet-On cell line. The protocol:
5.3. Biological Assays: Effect of Compounds of Formula (I) on Cloned Human GluN1/GluN2B Ion Channels Expressed in Mammalian Cells
NMDA receptors are ion channels that are highly permeable to Ca^2+ ions, rendering it possible to monitor NMDA receptor function using cell-based calcium flux assay. In this assay, co-agonists glutamate and glycine are added to cells heterologously expressing human GluN1/GluN2B NMDA receptors to initiate cellular Ca^2+ influx. The time course of the changes in intracellular calcium is measured using a fluorescent dye and a FLIPR (Fluorometric Imaging Plate Reader) device.
Twenty four hours before measurements, the expression of the NMDA receptors in the stable cell line is induced with Tet-On inducible system in the presence of a non-selective NMDA receptor blocker. On the day of the experiment, cell culture media is carefully washed and the cells are loaded with Calcium 5 Dye Kit (Molecular Devices) in dye loading buffer containing 137 mM NaCl, 4 mM KCl, 2 mM CaCl2, 0.5 mM MgCl2 (standard assay) or 1.5 mM MgCl2 (HTS assay), 10 mM HEPES and 5 mM D-glucose; pH 7.4. After 1 h incubation at the room temperature, the dye is washed away with the assay buffer (137 mM NaCl (standard assay) or 150 mM (HTS assay), 4 mM KCl (standard assay) or 3 mM (HTS assay), 2 mM CaCl2, 0.01 mM EDTA, 10 mM HEPES and 5 mM D-glucose; pH 7.4) In the FLIPR TETRA reader, various concentrations of the test compounds are added to the cells for 5 min while fluorescence is monitored to detect potential agonist activity. Next, co-agonists, glutamate and glycine are added for another 5 minutes. The concentration of glutamate corresponding to ˜EC40 (standard assay) or EC40 (HTS assay) is used to maximize the assay's signal window and ability to detect NMDA receptor antagonists and negative allosteric modulators. A saturating concentration (10 μM) of glycine is also present in the assay. A non-selective NMDA receptor antagonist, (+)MK-801 is used as a positive control for antagonist activity. The fluorescent signal in the presence of test compounds is quantified and normalized to the signal defined by the appropriate control wells.
In general terms: A change in cytosolic calcium serves as a functional read-out for many receptors and channels.

SMILES strings stand for the structures. A value given as a limit tells only on which side of the number the result lay.

Chain of human GluN1/GluN2B NMDA receptors (Q13224 27-1484, other chains not shown): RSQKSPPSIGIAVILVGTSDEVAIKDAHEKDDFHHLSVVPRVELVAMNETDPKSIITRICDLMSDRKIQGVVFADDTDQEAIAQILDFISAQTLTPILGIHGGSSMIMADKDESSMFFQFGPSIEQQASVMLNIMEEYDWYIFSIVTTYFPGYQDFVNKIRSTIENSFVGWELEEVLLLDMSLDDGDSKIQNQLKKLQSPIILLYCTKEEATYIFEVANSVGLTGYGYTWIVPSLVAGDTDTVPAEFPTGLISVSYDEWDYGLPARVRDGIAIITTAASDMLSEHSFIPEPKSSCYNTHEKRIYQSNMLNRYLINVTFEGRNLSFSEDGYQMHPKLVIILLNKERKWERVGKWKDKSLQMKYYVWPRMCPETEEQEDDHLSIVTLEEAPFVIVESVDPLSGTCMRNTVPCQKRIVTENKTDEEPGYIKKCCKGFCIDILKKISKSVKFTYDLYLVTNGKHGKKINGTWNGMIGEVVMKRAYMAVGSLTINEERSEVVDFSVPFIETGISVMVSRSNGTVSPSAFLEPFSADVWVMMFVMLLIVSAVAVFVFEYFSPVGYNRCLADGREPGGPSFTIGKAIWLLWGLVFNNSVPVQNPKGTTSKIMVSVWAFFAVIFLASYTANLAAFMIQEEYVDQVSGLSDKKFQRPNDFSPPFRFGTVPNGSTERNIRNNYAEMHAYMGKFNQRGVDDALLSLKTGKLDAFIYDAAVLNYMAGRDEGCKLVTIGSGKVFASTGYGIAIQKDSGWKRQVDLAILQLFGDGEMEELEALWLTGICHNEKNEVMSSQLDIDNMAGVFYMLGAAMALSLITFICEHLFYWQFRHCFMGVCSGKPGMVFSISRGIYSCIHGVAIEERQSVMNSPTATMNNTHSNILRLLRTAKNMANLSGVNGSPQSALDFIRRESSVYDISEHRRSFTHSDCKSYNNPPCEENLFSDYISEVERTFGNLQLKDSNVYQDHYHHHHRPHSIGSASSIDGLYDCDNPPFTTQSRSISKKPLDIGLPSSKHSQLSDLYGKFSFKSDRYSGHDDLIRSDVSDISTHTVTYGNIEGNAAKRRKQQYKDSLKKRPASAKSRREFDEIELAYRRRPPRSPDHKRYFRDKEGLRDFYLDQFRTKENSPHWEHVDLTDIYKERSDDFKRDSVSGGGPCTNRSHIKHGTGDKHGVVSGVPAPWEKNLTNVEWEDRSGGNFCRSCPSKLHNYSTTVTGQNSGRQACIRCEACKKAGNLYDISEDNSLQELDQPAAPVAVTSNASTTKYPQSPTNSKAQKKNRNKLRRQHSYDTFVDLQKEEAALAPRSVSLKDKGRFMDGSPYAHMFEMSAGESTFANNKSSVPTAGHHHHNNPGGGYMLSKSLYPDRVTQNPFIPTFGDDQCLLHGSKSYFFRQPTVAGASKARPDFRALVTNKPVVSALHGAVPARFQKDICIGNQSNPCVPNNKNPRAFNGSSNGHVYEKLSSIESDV

In the case of `CC(C)C1CN(Cc2cncc(-c3ccc(F)c(OC(F)F)c3)c2)C(=O)O1` (racemic) [Example 14, (R/S)-3-[[5-[3-(Difluoromethoxy)-4-fluoro-phenyl]-3-pyridyl]methyl]-5-isopropyl-oxazolidin-2-one], the IC50 is 97 nM.

For `O=C1OC2(CCC2)CN1Cc1cncc(-c2ccc(F)c(OC(F)F)c2)c1` [Example 12, 6-[[5-[3-(Difluoromethoxy)-4-fluoro-phenyl]-3-pyridyl]methyl]-8-oxa-6-azaspiro[3.4]octan-7-one], the IC50 is 59 nM.

With `CC(F)(F)c1cc(-c2cncc(CN3CCOC3=O)c2)ccc1F` [Example 49, 3-[[5-[3-(1,1-Difluoroethyl)-4-fluoro-phenyl]-3-pyridyl]methyl]oxazolidin-2-one], the IC50 amounted to 30 nM.

With `CC(C)C1CN(Cc2cncc(-c3ccc(F)c(C(F)F)c3)c2)C(=O)O1` (racemic) [Example 35, (R/S)-3-[[5-[3-(Difluoromethyl)-4-fluoro-phenyl]-3-pyridyl]methyl]-5-isopropyl-oxazolidin-2-one], the IC50 stood at 29 nM.

Regarding `Cc1ncc(-c2cccc(OC(F)F)c2)cc1CN1CCCOC1=O` [Example 63, 3-[[5-[3-(Difluoromethoxy)phenyl]-2-methyl-3-pyridyl]methyl]-1,3-oxazinan-2-one], the IC50 turned out to be 174 nM.

Take `COc1ncc(-c2ccc(F)c(C(F)F)c2)cc1CN1C(=O)OC[C@H]1C` [Example 121, (4R)-3-[[5-[3-(Difluoromethyl)-4-fluoro-phenyl]-2-methoxy-3-pyridyl]methyl]-4-methyl-oxazolidin-2-one]: the IC50 was 21 nM.

On to `COc1ncc(-c2ccc(Cl)c(C(F)F)c2)cc1CN1CCOC1=O` [Example 115, 3-[[5-[4-Chloro-3-(difluoromethyl)phenyl]-2-methoxy-3-pyridyl]methyl]oxazolidin-2-one], for which the IC50 was determined as 10 nM.

As to `CC(c1cncc(-c2ccc(F)c(C(F)F)c2)c1)N1CCCOC1=O` (racemic) [Example 61, (R/S)-3-[1-[5-[3-(difluoromethyl)-4-fluoro-phenyl]-3-pyridyl]ethyl]-1,3-oxazinan-2-one], the IC50 is 323 nM.

For the molecule `O=C1OC(CN2CCOCC2)CN1Cc1cncc(-c2ccc(F)c(C(F)F)c2)c1` (single isomer, unassigned) [Example 41, (S*)-3-[[5-[3-(Difluoromethyl)-4-fluoro-phenyl]-3-pyridyl]methyl]-5-(morpholinomethyl)oxazolidin-2-one], the IC50 turned out to be 751 nM.

Turning to `COc1ncc(-c2cc(F)cc(C)c2F)cc1CN1CCOC1=O` [Example 114, 3-[[5-(2,5-Difluoro-3-methyl-phenyl)-2-methoxy-3-pyridyl]methyl] oxazolidin-2-one], the IC50 was determined as 542 nM.

As to `Cc1ncc(-c2ccc(C(F)(F)F)s2)cc1CN1CCOC1=O` [Example 99, 3-[[2-Methyl-5-[5-(trifluoromethyl)-2-thienyl]-3-pyridyl]methyl]oxazolidin-2-one], the IC50 worked out at 16 nM.

`O=C1OC2(COC2)CN1Cc1cncc(-c2ccc(F)c(OC(F)F)c2)c1` [Example 13, 6-[[5-[3-(Difluoromethoxy)-4-fluoro-phenyl]-3-pyridyl]methyl]-2,8-dioxa-6-azaspiro[3.4]octan-7-one]: the IC50 was 39 nM.

For the molecule `O=C1OCCN1Cc1cc(-c2ccc(F)c(OC(F)F)c2)cnc1F` [Example 150, 3-((5-(3-(Difluoromethoxy)-4-fluorophenyl)-2-fluoropyridin-3-yl)methyl)oxazolidin-2-one], the IC50 is 11 nM.

For `CC(C)[C@@H]1COC(=O)N1Cc1cncc(-c2ccc(F)c(C(F)F)c2)c1` [Example 31, (4R)-3-[[5-[3-(Difluoromethyl)-4-fluoro-phenyl]-3-pyridyl]methyl]-4-isopropyl-oxazolidin-2-one], the IC50 is greater than 3000 nM.

As to `CC(F)(F)c1ncc(-c2ccc(F)c(OC(F)F)c2)cc1CN1CC2(CCC2)OC1=O` [Example 147, 6-[[2-(1,1-Difluoroethyl)-5-[3-(difluoromethoxy)-4-fluoro-phenyl]-3-pyridyl]methyl]-8-oxa-6-azaspiro[3.4]octan-7-one], the IC50 amounted to 392 nM.

On to `O=C1OCCN1Cc1cncc(-c2ccnc(C(F)(F)F)c2)c1` [Example 51, 3-[[5-[2-(Trifluoromethyl)-4-pyridyl]-3-pyridyl]methyl]oxazoidin-2-one], for which the IC50 was determined as 1000 nM.

Turning to `O=C1OCCN1Cc1cncc(-c2cccc(C(F)(F)F)c2)c1` [Example 46, 3-[[5-[3-(Trifluoromethyl)phenyl]-3-pyridyl]methyl]oxazolidin-2-one], the IC50 was determined as 26 nM.

With `O=C1OC2(COC2)CN1Cc1cncc(-c2ccc(F)c(C(F)F)c2)c1` [Example 34, 6-[[5-[3-(Difluoromethyl)-4-fluoro-phenyl]-3-pyridyl]methyl]-2,8-dioxa-6-azaspiro[3.4]octan-7-one], the IC50 turned out to be 30 nM.

`Cc1ncc(-c2ccc(F)c(OC(F)F)c2)cc1CN1C(=O)OCC1C` (single isomer, unassigned) [Example 83, (S*)-3-[[5-[3-(Difluoromethoxy)-4-fluoro-phenyl]-2-methyl-3-pyridyl]methyl]-4-methyl-oxazolidin-2-one]: the IC50 came out at 30 nM.

Take `Cc1ncc(-c2ccc(F)c(OC(F)F)c2)cc1CN1CC2(CCC2)OC1=O` [Example 85, 6-[[5-[3-(Difluoromethoxy)-4-fluoro-phenyl]-2-methyl-3-pyridyl]methyl]-8-oxa-6-azaspiro[3.4]octan-7-one]: the IC50 was 107 nM.

`O=C1OCCCN1Cc1cc(-c2ccc(F)c(OC(F)F)c2)cnc1F` [Example 151, 3-((5-(3-(Difluoromethoxy)-4-fluorophenyl)-2-fluoropyridin-3-yl)methyl)-1,3-oxazinan-2-one]: the IC50 came out at 11 nM.

As for `O=C1OCCN1Cc1cc(-c2ccc(F)c(C(F)F)c2)cnc1OC(F)F` [Example 131, 3-[[2-(Difluoromethoxy)-5-[3-(difluoromethyl)-4-fluoro-phenyl]-3-pyridyl]methyl]oxazolidin-2-one], the IC50 is 153 nM.

On to `Cc1ncc(-c2ccc(F)c(OC(F)F)c2)cc1CN1CCCOC1=O` [Example 88, 3-[[5-[3-(Difluoromethoxy)-4-fluoro-phenyl]-2-methyl-3-pyridyl]methyl]-1,3-oxazinan-2-one], for which the IC50 turned out to be 22 nM.

On to `[2H]C([2H])(c1cc(-c2ccc(F)c(C(F)F)c2)cnc1C)N1CCOC1=O` [Example 59, 3-[Dideuterio-[5-[3-(difluoromethyl)-4-fluoro-phenyl]-2-methyl-3-pyridyl]methyl]oxazolidin-2-one], for which the IC50 amounted to 13 nM.

As for `Cc1ncc(-c2cccc(C(F)F)c2)cc1CN1CCCOC1=O` [Example 62, 3-[[5-[3-(Difluoromethyl)phenyl]-2-methyl-3-pyridyl]methyl]-1,3-oxazinan-2-one], the IC50 is 128 nM.

`O=C1OC2(CCC2)CN1Cc1cncc(-c2ccc(F)c(C(F)F)c2)c1` [Example 32, 6-[[5-[3-(Difluoromethyl)-4-fluoro-phenyl]-3-pyridyl]methyl]-8-oxa-6-azaspiro[3.4]octan-7-one]: the IC50 was found to be 26 nM.

Regarding `O=C1OCCCN1Cc1cc(-c2ccc(F)c(OC(F)F)c2)cnc1C(F)F` [Example 126, 3-[[5-[3-(Difluoromethoxy)-4-fluoro-phenyl]-2-(difluoromethyl)-3-pyridyl]methyl]-1,3-oxazinan-2-one], the IC50 was found to be 19 nM.

As for `COc1ncc(-c2ccc(Cl)c(OC(F)F)c2)cc1CN1CCOC1=O` [Example 107, 3-[[5-[4-Chloro-3-(difluoromethoxy)phenyl]-2-methoxy-3-pyridyl]methyl]oxazolidin-2-one], the IC50 came to 11 nM.

Take `O=C1OCCCN1Cc1cc(-c2ccc(F)c(C(F)F)c2)cnc1C(F)F` [Example 123, 3-[[2-(Difluoromethyl)-5-[3-(difluoromethyl)-4-fluoro-phenyl]-3-pyridyl]methyl]-1,3-oxazinan-2-one]: the IC50 was 63 nM.

For the molecule `CC1(C)CCN(Cc2cncc(-c3ccc(F)c(C(F)F)c3)c2)C(=O)O1` [Example 30, 3-[[5-[3-(Difluoromethyl)-4-fluoro-phenyl]-3-pyridyl]methyl]-6,6-dimethyl-1,3-oxazinan-2-one], the IC50 came to 603 nM.

As for `[2H]C([2H])(c1cncc(-c2ccc(F)c(OC(F)F)c2)c1)N1CCCOC1=O` [Example 55, 3-[Dideuterio-[5-[3-(difluoromethoxy)-4-fluoro-phenyl]-3-pyridyl]methyl]-1,3-oxazinan-2-one], the IC50 came to 12 nM.

As for `O=C1OCCN1Cc1cc(-c2ccc(Cl)c(OC(F)F)c2)cnc1C(F)F` [Example 130, 3-[[5-[4-Chloro-3-(difluoromethoxy)phenyl]-2-(difluoromethyl)-3-pyridyl]methyl]oxazolidin-2-one], the IC50 was 30 nM.

As a reminder, the IC50 is the midpoint of a concentration-inhibition curve.

The values are drawn from patent publication US11447503B2, “Pyridine carbamates and their use as GLUN2B receptor modulators” (JANSSEN PHARMACEUTICA NV, priority 2019, dated 2022).
